Assay results from patent US10085983B2, “Azabicyclo derivatives, process for preparation thereof and medical use thereof” (Shanghai Haiyan Pharmaceutical Technology Co., Ltd., priority 2014, dated 2018).

Key:
[1] = Stability of compound CC0922; type: physicochemical
A431 cells = experiment: Cell growth inhibition by MTT assay, A431 cells; type: cell-based; conditions: 72 hours
Protocol: (§1) The steps of the MTT assay were carried out using methods well known to those skilled in the art, and all the reagents used in the methods are commercially available.
(§2) After the first wash, another 1.5 mL of trypsin/EDTA was added to digest the adherent cells until the cells detached. Then 3.5 mL of the culture medium was added to terminate the digestion. The digested cell suspension was transferred to a 15 mL centrifuge tube and centrifuged at 1300 rpm for 3 minutes. The supernatant was discarded and the cells were resuspended in fresh medium. The cells were then counted and diluted to the following concentrations: 27,800 cells per milliliter of H1975 cells, 33,300 cells per milliliter of A431 cells and NIH3T3 cells (purchased from the Cell Bank of the Type Culture Collection Committee, Chinese Academy of Sciences).
(§3) After the drug was added, the cells were incubated in an incubator for 72 hours. 10 μL of 5 mg/ml MTT (Sigma, M5655) solution was added to each well. The 96-well plate was then incubated in a 37° C. and 5% CO2 incubator for 4 h.
(§4) The plate was then centrifuged at 2000 rpm for 5 min. After the supernatant was removed, 150 μl of DMSO was added to each well and the plate was shaken in a shaker until all crystal violet was dissolved.

[2] = target: EGFR phosphorylation in H1975 (EGFR T790M mutant) cells (Homo sapiens (Human), UniProt P00533, L858R/T790M); experiment: Inhibition of EGFR phosphorylation in H1975 cells (ELISA); type: cell-based; conditions: for IC50: ELISA of EGFR phosphorylation, 1 h compound treatment, read-out: H1975 cell (IC50/μM); for Selective inhibitory activity against targets at the cell level [IC50 (A431 cell)/IC50 (H1975 cell)]: ratio of ELISA IC50 values;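 as to all read-outs here: Phospho-EGFR in cell lysates measured by capture-antibody ELISA with TMB substrate after compound exposure, cells given DMSO alone (0.5% final) serving as control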
EGFR phosphorylation in H1975 (EGFR T790M mutant) cells, sequence (P00533 25-1210 T790M/L858R): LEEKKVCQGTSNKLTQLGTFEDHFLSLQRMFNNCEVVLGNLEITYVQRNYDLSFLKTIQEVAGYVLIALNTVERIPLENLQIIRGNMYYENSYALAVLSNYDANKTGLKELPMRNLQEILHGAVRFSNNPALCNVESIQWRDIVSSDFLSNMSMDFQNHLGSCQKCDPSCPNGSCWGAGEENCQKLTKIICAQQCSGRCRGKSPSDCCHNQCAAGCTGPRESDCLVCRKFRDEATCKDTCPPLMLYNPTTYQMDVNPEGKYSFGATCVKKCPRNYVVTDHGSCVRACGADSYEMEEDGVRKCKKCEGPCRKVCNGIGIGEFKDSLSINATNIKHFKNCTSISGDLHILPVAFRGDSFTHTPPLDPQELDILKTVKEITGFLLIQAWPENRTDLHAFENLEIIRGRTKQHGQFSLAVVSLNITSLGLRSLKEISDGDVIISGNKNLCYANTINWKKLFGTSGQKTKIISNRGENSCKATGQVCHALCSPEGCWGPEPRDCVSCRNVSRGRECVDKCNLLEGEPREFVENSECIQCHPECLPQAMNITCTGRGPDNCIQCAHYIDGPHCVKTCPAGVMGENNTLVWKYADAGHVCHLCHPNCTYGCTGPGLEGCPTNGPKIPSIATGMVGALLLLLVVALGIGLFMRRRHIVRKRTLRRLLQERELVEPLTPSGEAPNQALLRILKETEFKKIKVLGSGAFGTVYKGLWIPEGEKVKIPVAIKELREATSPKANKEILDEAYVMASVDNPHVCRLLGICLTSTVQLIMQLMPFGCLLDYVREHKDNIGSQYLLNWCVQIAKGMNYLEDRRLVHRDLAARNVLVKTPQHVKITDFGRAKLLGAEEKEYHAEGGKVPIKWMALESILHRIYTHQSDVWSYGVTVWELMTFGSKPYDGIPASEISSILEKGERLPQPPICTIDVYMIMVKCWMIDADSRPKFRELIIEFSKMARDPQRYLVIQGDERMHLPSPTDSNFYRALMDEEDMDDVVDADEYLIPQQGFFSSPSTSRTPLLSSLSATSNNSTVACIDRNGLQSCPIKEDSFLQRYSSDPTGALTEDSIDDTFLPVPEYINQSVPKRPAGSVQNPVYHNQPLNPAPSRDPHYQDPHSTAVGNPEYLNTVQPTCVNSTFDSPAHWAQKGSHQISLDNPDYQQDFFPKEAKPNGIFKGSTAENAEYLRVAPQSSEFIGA
Protocol: (§5) In the following methods, the reagents used, the preparation methods of solutions, the cell treatment and the preparation steps of the lysis solution, as well as the ELISA assay steps, were carried out according to the instructions of R&D DYC3570, R&D DYC1095E and R&D DYC1095BE.
(§6) Cell lysis solution: Cell lysis buffer+10 μg/mL Aprotinin (Sigma)+10 μg/mL Leupeptin (Sigma), prepared on site.
(§7) Wash buffer: PBS buffer containing 0.05% (v/v) Tween-20.
(§8) Blocking solution: PBS buffer containing 1% (w/v) BSA.
(1) H1975 cells (purchased from the Cell Bank of the Type Culture Collection Committee, Chinese Academy of Sciences) were seeded into 96-well plates at a density of 1×10^4/well, each cell containing 90 μl of RPMI1640 medium with 10% (V/V) FBS, and cultured overnight at 37° C. in 5% (v/v) CO2.
(2) The compounds to be tested were diluted in accordance with the drug dilution method in the MTT assay. 10 μL of the diluted compound or diluted DMSO was added to the corresponding wells of the cell culture plate, and the final concentration of DMSO was 0.5% (V/V). The plate was cultured at 37° C. in 5% (v/v) CO2 for 1 h. The cell culture system treated with DMSO alone was used as cell control.
(3) The medium was removed and then 100 μL of cell lysis solution was added. The plate was sealed and placed in a refrigerator at −80° C. overnight. The cell lysis buffer was used as blank control.
The assay was conducted according to the instructions given in R&D DYC1095E or R&D DYC1095BE.
(1) R&D capture antibody ((DYC1095BE or DYC1095E)) was diluted with PBS in the proportion of 1:180.
(§9) (2) The plate was washed 3 times with 360 μL of the wash buffer.
(3) 300 μL of the blocking solution was added and the plate was incubated at 25° C. with shaking for 2 hours.
(4) The plate was washed 3 times with 360 μL of the wash buffer.
(§10) (5) 40 μL of cell lysis buffer and 60 μL of cell lysis solution were added and the plate was incubated at 25° C. with shaking for 2 hours.
(§11) (6) The plate was washed 3 times with 360 μL of the wash buffer.
(§12) (7) The detection antibody was diluted with the detection antibody diluent in the proportion specified in the instructions of the kit. 100 μL of the diluted antibody was added to each well and the plate was incubated at 25° C. with shaking in dark for 1 h.
(8) The plate was washed 3 times with 360 μL of wash buffer.
(9) A reagent and B reagent in the TMB substrate (R&D DY999) were mixed in 1:1. 100 μL of the mixture was added to each well and incubated in dark at 25° C. with shaking for 20 min.
(§13) (10) 50 μL of 2N H2SO4 was added to each well.
(11) The plate was read with a microplate reader (Thermo Multiskan K3). OD 450 values and OD570 values of the cell control, blank control, and drug treatment wells were measured. ODcell, ODblank and ODdrug treatment were obtained by subtracting the corresponding OD570 value from the OD 450 value of the same well.
2.3 Data Analysis Inhibition rate (%)=100%×(ODcell−ODdrug treatment)/(ODcell−ODblank)

[3] = target: T790M/L858R double mutant EGFR kinase (Homo sapiens (Human), UniProt P00533, L858R/T790M); experiment: z'-lyte assay of inhibitory activity on T790M/L858R double mutant EGFR kinase; type: biochemical; conditions: for Selective inhibitory activity against enzymes [IC50 (EGFR WT)/IC50 (T790M/L858R)]: ratio of enzyme IC50 values; for IC50: z'-lyte assay, 25 μM ATP
T790M/L858R double mutant EGFR kinase, sequence (P00533 25-1210 T790M/L858R): as above

H1975 cells = experiment: Cell growth inhibition by MTT assay, H1975 cells; type: cell-based; conditions: for IC50: MTT assay, 72 hours; for Selective inhibitory activity against cell growth [IC50 (A431 cell)/IC50 (H1975 cell)]: ratio of MTT IC50 values;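 as to all read-outs here: MTT read-out in 96-well plates after 72 h compound exposure of H1975 and A431 cells, with selectivity given as the A431 IC50 divided by the H1975 IC50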
Protocol: as §1, §2, §3, §4

wild-type EGFR kinase = wild-type EGFR kinase (Homo sapiens (Human), UniProt P00533); conditions: read-out: EGFR WT (IC50/μM); z'-lyte assay, 10 μM ATP
wild-type EGFR kinase, sequence (P00533 25-1210): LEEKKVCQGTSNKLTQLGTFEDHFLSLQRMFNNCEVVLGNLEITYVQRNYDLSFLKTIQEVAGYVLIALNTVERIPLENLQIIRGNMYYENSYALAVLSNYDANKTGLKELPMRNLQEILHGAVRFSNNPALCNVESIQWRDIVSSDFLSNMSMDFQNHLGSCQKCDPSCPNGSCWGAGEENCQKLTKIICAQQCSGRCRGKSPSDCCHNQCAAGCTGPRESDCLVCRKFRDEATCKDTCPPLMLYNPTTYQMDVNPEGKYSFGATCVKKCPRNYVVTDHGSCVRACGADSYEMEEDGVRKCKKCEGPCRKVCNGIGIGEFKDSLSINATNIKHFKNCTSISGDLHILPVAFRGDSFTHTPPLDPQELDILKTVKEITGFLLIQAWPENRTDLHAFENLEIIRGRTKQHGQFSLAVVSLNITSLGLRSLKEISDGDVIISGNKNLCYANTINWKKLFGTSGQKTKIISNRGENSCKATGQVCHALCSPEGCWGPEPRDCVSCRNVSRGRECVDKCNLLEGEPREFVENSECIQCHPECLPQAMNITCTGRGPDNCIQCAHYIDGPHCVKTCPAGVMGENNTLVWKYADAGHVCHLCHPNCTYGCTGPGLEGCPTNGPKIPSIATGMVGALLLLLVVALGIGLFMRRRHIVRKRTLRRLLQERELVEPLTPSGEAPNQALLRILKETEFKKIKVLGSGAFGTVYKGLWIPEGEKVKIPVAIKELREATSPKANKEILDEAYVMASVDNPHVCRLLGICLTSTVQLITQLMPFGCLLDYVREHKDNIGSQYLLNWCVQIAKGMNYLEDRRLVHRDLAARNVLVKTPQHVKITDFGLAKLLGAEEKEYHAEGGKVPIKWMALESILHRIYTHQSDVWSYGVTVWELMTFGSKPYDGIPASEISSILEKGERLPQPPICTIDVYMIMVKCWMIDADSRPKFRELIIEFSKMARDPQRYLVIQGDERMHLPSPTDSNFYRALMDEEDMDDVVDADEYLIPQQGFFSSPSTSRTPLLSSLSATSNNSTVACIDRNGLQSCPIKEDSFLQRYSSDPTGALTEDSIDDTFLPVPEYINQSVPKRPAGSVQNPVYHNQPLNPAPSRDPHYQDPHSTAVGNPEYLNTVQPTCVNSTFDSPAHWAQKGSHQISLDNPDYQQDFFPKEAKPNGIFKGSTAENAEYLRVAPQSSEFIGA
Protocol: All reagents used in the following z′-lyte assay were purchased from Invitrogen.
The working concentrations of each component in 10 μL wild-type EGFR kinase reaction system were: 10 μM ATP, 0.8 ng/μL wild-type EGFR kinase, 2 μM Tyr04 substrate (Invitrogen, PV3193). The concentration of DMSO after addition of the compound to be tested was 2 vol %.
10 mM drug stock solution was dissolved at room temperature and gradiently diluted to a final concentration of 4-0.002 μM with 8 vol % DMSO solution. […] Then 2.5 μl of ATP was added to initiate the reaction. Wherein, ATP was replaced by the reaction buffer in well C1, no drug was added to well C2, and the phosphorylated substrate was added to well C3 according to the instructions. The mixture was allowed to react at 25° C. in a shaker in dark for 60 min. 5 μL of Development Reagent B (Invitrogen, diluted with TR-FRET dilution buffer) was added and allowed to react at room temperature in the shaker for 60 minutes.
The inhibition rate was calculated according to the following method (refer to the instructions of Invitrogen, PV3193):
1. ER=Coumarin Emission (450 nm)/Fluorescein Emission (520 nm)
The half-inhibitory concentration IC50 was obtained through fitting calculation by using XLFIT 5.0 software (IDBS, UK).

NIH3T3 cells = experiment: Toxicity test on NIH3T3 cells by MTT assay; type: cell-based; conditions: 72 hours
Protocol: as §1, §2, §3, §4

[4] = target: EGFR phosphorylation in A431 (EGFR wild-type) cells (Homo sapiens (Human), UniProt P00533); experiment: Inhibition of EGFR phosphorylation in A431 cells (ELISA); type: cell-based; conditions: 1 h compound treatment, EGF stimulation, read-out: A431 cell (IC50/μM)
EGFR phosphorylation in A431 (EGFR wild-type) cells, sequence (P00533 25-1210): as above
Protocol: as §5
I. Reagents and Solutions
as §6, §7, §8
3.1 A431 Cell Treatment and Testing Procedures
(1) A431 cells (purchased from the Cell Bank of the Type Culture Collection Committee, Chinese Academy of Sciences) were seeded in 96-well plates at a density of 1×10^4/well in 90 μl of DMEM medium containing 10% FBS and cultured at 37° C. in 5% CO2 overnight.
(2) The A431 cell culture medium was replaced with 90 μl of serum-free DMEM medium and the plate was cultured overnight.
(3) The compound to be tested was diluted according to the drug dilution method in MTT assay. 10 μL of the diluted compound or diluted DMSO was added to the corresponding wells of the cell culture plate, and the final concentration of DMSO was 0.5%. The plate was cultured at 37° C. in 5% CO2 for 1 hour. […] The cells without EGF and drug treatment were used as cell control, and the cells treated with EGF without drugs were used as EGF control.
(4) The medium was removed and then 100 μL of the cell lysis solution was added. The plate was sealed and placed in a refrigerator at −80° C. overnight.
The assay was conducted according to the instructions given in R&D DYC3570E.
(1) R&D capture antibody (DYC3570E) was diluted with PBS in the proportion of 1:180.
as §9
(3) 200 μL of the blocking solution was added and the plate was incubated at 25° C. with shaking for 2 hours.
(4) The plate was washed 3 times with 360 μL of wash buffer.
as §10, §11, §12
(8) The plate was washed 3 times with 360 μL of the wash buffer.
(9) A reagent and B reagent in TMB substrate (R&D DY999) were mixed in 1:1. 100 μL of the mixture was added to each well and incubated in dark at 25° C. with shaking for 20 min.
as §13
(11) The plate was read with a microplate reader (Thermo Multiskan K3). OD 450 values and OD570 values of the cell control, blank control, and drug treatment wells were measured. ODEGF, ODdrug and ODcell were obtained by subtracting the corresponding OD570 value from the OD 450 value of the same well.
3.3 Data Analysis Inhibition rate (%)=100%×(ODEGF−ODdrug)/(ODEGF−ODcell)

[5] = test system: T790M mutant cell line H1975; conditions: background statement; cited from earlier work

| SMILES | stability [1] | IC50 (A431 cells) | IC50 [2] | Selective inhibitory activity against targets at the cell level [IC50 (A431 cell)/IC50 (H1975 cell)] [2] | Selective inhibitory activity against enzymes [IC50 (EGFR WT)/IC50 (T790M/L858R)] [3] | IC50 [3] | IC50 (H1975 cells) | Selective inhibitory activity against cell growth [IC50 (A431 cell)/IC50 (H1975 cell)] (H1975 cells) | IC50 (wild-type EGFR kinase) | IC50 (NIH3T3 cells) | IC50 [4] | activity in the T790M mutant cell line H1975 [5] |
| --- | --- | --- | --- | --- | --- | --- | --- | --- | --- | --- | --- | --- |
| C=CC(=O)Nc1cccc(-c2ccc3cnc(Nc4ccc(N(C)CCN(C)C)cc4OC)nn23)c1 [CC0922] | very unstable | – | – | – | – | – | – | – | – | – | – | – |
| C=CC(=O)Nc1cc(Nc2ncc3ccc(-c4cccnc4)n3n2)c(OC)cc1N(C)CCN(C)C [Compound J-6, N-(2-((2-(dimethylamino)ethyl)(methyl)amino)-4-methoxy-5-(7-(pyridin-3-yl)pyrrolo[1,2-f][1,2,4]triazin-2-ylamino)phenyl)acrylamide] | – | 0.427 µM | 0.027 µM | 11.4 | 5.42 | 0.0024 µM | 0.028 µM | 15.3 | 0.013 µM | 8.21 µM | 0.309 µM | – |
| C=CC(=O)Nc1cc(Nc2ncc3ccc(C)n3n2)c(OC)cc1N(C)CCN(C)C [Compound J-9, N-(2-((2-(dimethylamino)ethyl)(methyl)amino)-4-methoxy-5-(7-methylpyrrolo[1,2-f][1,2,4]triazin-2-ylamino)phenyl)acrylamide] | – | 1.65 µM | 0.186 µM | 5 | 6.6 | 0.016 µM | 0.125 µM | 13.2 | 0.105 µM | > 10 µM | 0.92 µM | – |
| C=CC(=O)Nc1cc(Nc2ncc3ccc(-c4ccccc4)n3n2)c(OC)cc1N(C)CCN(C)C [Compound J-11, N-(2-((2-(dimethylamino)ethyl)(methyl)amino)-4-methoxy-5-(7-phenylpyrrolo[1,2-f][1,2,4]triazin-2-ylamino)phenyl)acrylamide] | – | 0.621 µM | 0.063 µM | 3.8 | 4.2 | 0.0024 µM | 0.026 µM | 23.9 | 0.01 µM | 5.57 µM | 0.237 µM | – |
| C=CC(=O)Nc1cc(Nc2ncc3ccc(-c4ccn(C)c4)n3n2)c(OC)cc1N(C)CCN(C)C [Compound J-12, N-(2-((2-(dimethylamino)ethyl)(methyl)amino)-4-methoxy-5-(7-(1-methyl-1H-pyrrol-3-yl)pyrrolo[1,2-f][1,2,4]triazin-2-ylamino)phenyl)acrylamide] | – | 0.332 µM | 0.015 µM | 1.5 | 4.2 | 0.0019 µM | 0.009 µM | 36.9 | 0.008 µM | 4.73 µM | 0.023 µM | – |
| C=CC(=O)Nc1cc(Nc2ncc3ccc(-c4cnc5ccccc5c4)n3n2)c(OC)cc1N1CCC(N(C)C)CC1 [Compound J-13, N-(2-(4-(dimethylamino)piperidin-1-yl)-4-methoxy-5-(7-(quinolin-3-yl)pyrrolo[1,2-f][1,2,4]triazin-2-ylamino)phenyl)acrylamide] | – | 0.369 µM | 0.043 µM | 7 | 4.2 | 0.005 µM | 0.013 µM | 28.4 | 0.021 µM | 2.97 µM | 0.301 µM | – |
| C#Cc1cccc(Nc2ncnc3cc(OCCOC)c(OCCOC)cc23)c1 [erlotinib] | – | – | – | – | – | – | – | – | – | – | – | greater than 3 uM |
| COc1cc2ncnc(Nc3ccc(F)c(Cl)c3)c2cc1OCCCN1CCOCC1 [gefitinib] | – | – | – | – | – | – | – | – | – | – | – | greater than 3 uM |
